Results as given in patent EP4678172A1, “USE OF NAPHTHYLAMIDE COMPOUND IN TREATMENT OF MENINGIOMA” (Shanghai Runshi Medical Technology Co., Ltd, priority 2023, dated 2024).

Assays:
CH157-MN [1] = test: Transwell chamber assay (invasion); assay type: cell-based, human; conditions: CH157-MN, 2, 5, 10 µM, 24 h; with increasing concentration
Description: (§1) • (1) The upper chamber of the pre-cooled Transwell chamber was coated with 50 µL of matrigel, and the matrigel-coated chamber was incubated in an incubator at 37 °C for 6-8 h to allow the matrigel to polymerize into a gel. After 100 µL of a serum-free culture medium was added to each well, the chamber was placed in an incubator for 1 h to allow the basement membrane hydration. The liquid in the upper chamber was removed, and the IOMM-Lee single cell suspension in the logarithmic growth phase was adjusted to a cell density of 2 × 10^5 cells/mL using the serum-free DMEM culture medium; 200 µL of the cell suspension was added to the Transwell chamber; and the culture liquid in the lower chamber was a DMEM culture medium with 20% FBS. Compound (I) samples at different concentrations (0 µM, 0.5 µM, 1 µM, and 2 µM, respectively) were added to the chamber. The culture was finished 24 h later; and the cells in the chamber were removed with a cotton swab, fixed with 4% paraformaldehyde for 20 min, washed with PBS 3 times, stained with crystal violet for 30 min, and observed under a microscope. The invading cells were counted. • (2) With reference to the experimental method (1), the concentrations in the compound (I) treatment groups were replaced by 2 µM, 5 µM, and 10 µM, respectively, and the used human meningioma cell line was IOMM-Lee or CH157-MN.

IOMM-Lee [2] = test: Transwell chamber assay (invasion); assay type: cell-based, human; conditions: IOMM-Lee, 0.5, 1, 2 µM and 2, 5, 10 µM, 24 h; with increasing concentration
Description: as §1

CH157-MN [3] = test: Cell scratch assay (migration); assay type: cell-based, human; conditions: CH157-MN, 2, 5, 10 µM, 24 h, versus blank control; dose-dependent
Description: (§2) • (1) The IOMM-Lee single cell suspension in the logarithmic growth phase was seeded in a 6-well plate at a cell density of 6 × 10^5 cells/mL and cultured for 24 h to ensure the full covering of the entire cell culture dish by the growing cells. A cell scratch was made by a 10 µL sterile pipette tip perpendicular to the culture dish; the original culture solution was discarded; and the detached cells were pipetted by washing with PBS 3 times. The cells were cultured using a serum-free DMEM culture medium and grouped into a blank control group and compound (I) treatment groups at different concentrations, where the compound (I) treatment groups had concentrations of 0.5 µM, 1 µM, and 2 µM, respectively. The cells were observed under the bright field of a microscope and recorded at 0 h and 24 h. • (2) With reference to the experimental method (1), the concentrations in the compound (I) treatment groups were replaced by 2 µM, 5 µM, and 10 µM, respectively, and the used human meningioma cell line was IOMM-Lee or CH157-MN.

IOMM-Lee [4] = test: Cell scratch assay (migration); assay type: cell-based, human; conditions: IOMM-Lee, 0.5, 1, 2 µM and 2, 5, 10 µM, 24 h, versus blank control; dose-dependent
Description: as §2

[5] = system: meningioma cells IOMM-Lee; test: EdU cell proliferation assay; assay type: cell-based, human; conditions: 1 µM, 24 h, versus blank control group
Description: The IOMM-Lee single cell suspension in the logarithmic growth phase obtained in Example 1 was seeded in a 6-well plate at a cell density of 3 × 10^5 cells/mL, cultured overnight, and grouped into a blank control group and a compound (I) treatment group (concentration: 1 µM; treatment duration: 24 h). Subsequently, each group was incubated with EdU (10 µM) for 2 h; the culture medium was discarded; and the cells were washed with PBS (in this experiment, PBS was used in the washing process). The cells were fixed with 4% paraformaldehyde; the stationary liquid was discarded; and the cells were washed. After that, the cells were permeabilized with 0.3% Triton X100; the permeabilization liquid was discarded; and the cells were washed. Then, a prepared click reaction solution (commercially available C0081 BeyoClick™ EdU Cell Proliferation Kit with Alexa Fluor 647) was added; the mixture was incubated in the dark at room temperature for 30 min; the reaction solution was discarded; and the cells were washed. The cell nuclei were stained with Hoechst 33342 fluorescent dye by adding 1× Hoechst 33342 solution at 1 mL/well, followed by incubated in the dark at room temperature for 10 min; 1× Hoechst 33342 solution was removed by pipetting; and the cells were washed 3 times. Subsequently, a fluorescence assay was performed, and the results were recorded.

CH157-MN [6] = test: Apoptosis by annexin V-FITC/PI flow cytometry; assay type: cell-based, human; conditions: CH157-MN, 2, 5, 10 µM, 24 h, versus blank control
Description: (§3) • (1) The IOMM-Lee single cell suspension in the logarithmic growth phase was seeded in a 6-well plate at a cell density of 5 × 10^5 cells/mL, cultured overnight, and grouped into a blank control group and compound (I) treatment groups at different concentrations, with concentrations of compound (I) being 1 µM, 5 µM, and 10 µM, respectively, and 3-4 replicate wells were set. After the addition of compound (I) at different concentrations for the treatment for 24 h, (1-10) × 10^5 cells were collected from the blank control group and each compound (I) treatment group, washed with PBS, and centrifuged. The cells were resuspended in 500 µL of 1× binding buffer. 5 µL of annexin V-FITC and 10 µL of PI were added to each tube. After gently and homogeneously mixing by vortex, the cells were incubated in the dark at room temperature for 5 min and then subjected to flow cytometry. • (2) With reference to the experimental method (1), the concentrations in the compound (I) treatment groups were replaced by 2 µM, 5 µM, and 10 µM, respectively, and the used human meningioma cell line was IOMM-Lee or CH157-MN.

IOMM-Lee [7] = test: Apoptosis by annexin V-FITC/PI flow cytometry; assay type: cell-based, human; conditions: IOMM-Lee, 1, 5, 10 µM and 2, 5, 10 µM, 24 h, versus blank control
Description: as §3

[8] = system: Human meningioma cell line IOMM-Lee cells; test: Trypan blue viable cell counting, cell viability; assay type: cell-based; conditions: 24 h
Description: Human meningioma cell line IOMM-Lee cells (purchased from ATCC) were cultured using a DMED culture medium containing 10% FBS and 100 U/mL penicillin-streptomycin double antibiotics in an incubator with 5% CO2 at 37 °C. The cells in the logarithmic growth phase were seeded uniformly in a 6-well plate at a density of 2 × 10^5 cells/mL and cultured for 24 h, and then the cells were grouped into a blank control group and compound (I) treatment groups at different concentrations. The compound (I) treatment concentrations were 0.4 µM, 0.8 µM, 1.6 µM, 2 µM, 10 µM, 20 µM, 60 µM, and 120 µM, and 3-4 replicate wells were set for each group. After cells in the groups were separately cultured for 24 h, the cells were digested with 0.25% trypsin, and 50 µL of each cell suspension was mixed with 50 µL of 0.4% trypan blue solution to a final trypan blue concentration of 0.2%. Subsequently, 10 µL of the uniform cell suspension was added to a counting plate and counted under a microscope for the total cell count and dead cell count. Statistical analysis was performed.

patients with meningioma = test: Phase I clinical trial, tumor assessment by RANO criteria for meningioma; assay type: in vivo, human; conditions: for C2 target lesion shrinkage / target lesion shrinkage: head MRI; for target lesion shrinkage: after 6 cycles
Description: Compound (I) is currently undergoing phase I clinical trials to evaluate the preliminary efficacy on patients with meningioma.
Drug: compound (I) oral solution, 10-25 mg/day, once daily.
If no serious adverse events occurred, subsequent treatment cycles (21 days for each cycle) of administration may begin until progressive disease (PD) or intolerable toxicity occurred.
The efficacy on tumors was evaluated according to the RANO Criteria for Meningioma (Huang, Raymond Y et al. Proposed response assessment and endpoints for meningioma clinical trials: report from the Response Assessment in Neuro-Oncology Working Group. Neuro-oncology. vol. 21, 1 (2019): 26-36. doi:10.1093/neuonc/noy137). Target lesions were selected from tumor lesions with enhancement according to the criteria and precisely measured. The tumor treatment efficacy on the target lesions was confirmed by comparing the changes in the measured values. […] In addition, the improvement and deterioration of clinical symptoms of patients and the change in steroid hormone doses for symptomatic treatment of neurological symptoms were also used as evaluation indexes in tumor assessment. A tumor assessment was performed at baseline prior to the first administration and then performed once every 6 weeks during the administration until progressive disease (PD) occurred or a new anti-tumor treatment started.

[9] = Animal long-term toxicity test, conversion to human maximum tolerated dose; assay type: in vivo; conditions: converted from animal long-term toxicity test, human body weight of 60 kg
Description: A specific dose and administration frequency can be determined by a skilled physician according to conventional skills allowing for factors such as the route of administration, the health condition of the patient, etc. In the first dose escalation study (phase I trial) in a human, the most sensitive animal species were selected to calculate the maximum recommended starting dose for clinical trials according to the pre-clinical toxicology study. The starting dose was calculated according to the calculation methods recommended by "Technical Guidelines for Non-Clinical Research on Anti-Cancer Drugs" and other guidelines. In some embodiments, in the phase 1 clinical trial of compound (I), in order to ensure the safety of subjects, in combination with the operability of clinical trials and formulation specification, the starting dose of compound (I) for the phase I clinical trial was designed to be 5 mg. Based on the results of an animal long-term toxicity test, the maximum tolerated dose for the human body is converted into 200 mg according to the human body weight of 60 kg. In the phase 1 clinical trial of compound (I), the safety, tolerance, and efficacy of the continuous administration regimen of a daily administration dose of 5 mg-200 mg were researched. […]

[10] = 34 meningioma patients, oral solution 10-25 mg/day
[11] = RANO criteria for meningioma, 34 meningioma patients, oral solution 10-25 mg/day
[12] = by Feb. 2, 2024, 32 patients completed the tumor assessment, oral solution 10-25 mg/day
[13] = by Jan. 16, 2023, 5 patients completed the tumor assessment, oral solution 10-25 mg/day
[14] = of 34 meningioma patients, oral solution 10-25 mg/day

With `Cc1cc(NC(=O)c2cccc3cc(-c4cccc5[nH]nc(N)c45)ccc23)ccc1F` [compound (I)] the invasion rates (CH157-MN [1]) was “significantly decreased”, the invasion rates (IOMM-Lee [2]) was “significantly decreased” and the cell scratch healing (CH157-MN [3]) was “significantly weaker cell scratch healing than that of the blank control group”. The cell scratch healing (IOMM-Lee [4]) was “significantly weaker cell scratch healing than that of the blank control group”, the “EdU-labeled (proliferating) cells” value [5] was “significantly fewer than those in the blank control group” and the late apoptosis (CH157-MN [6]) was “significantly increased”. For the same molecule, the “total cell apoptosis ratio” value (CH157-MN [6]; with increasing concentration) was “increased”, the late apoptosis (IOMM-Lee [7]) was “significantly increased” and the “total cell apoptosis ratio” value (IOMM-Lee [7]; with increasing concentration) was “increased”. The viability at 0.4 µM ([8]; compound (I) 0.4 µM) was 71.8 ± 4.06%, the viability at 0.8 µM ([8]; compound (I) 0.8 µM) was 56.8 ± 5.19% and the viability at 1.6 µM ([8]; compound (I) 1.6 µM) was 48.3 ± 10.5%. For the same molecule, the viability at 2 µM ([8]; compound (I) 2 µM) was 45.3 ± 1.91%, the viability at 10 µM ([8]; compound (I) 10 µM) was 35 ± 3.93% and the viability at 20 µM ([8]; compound (I) 20 µM) was 22.6 ± 2.72%. It also gave a viability at 60 µM ([8]; compound (I) 60 µM) of 19.3 ± 0.52%, a viability at 80 µM ([8]; compound (I) 80 µM) of 6.33 ± 1.71% and a viability at 120 µM ([8]; compound (I) 120 µM) of 0%. The “adverse events associated with the administration (severity)” value (patients with meningioma; [10]) was “mostly mild and moderate”, the “adverse events with an incidence of greater than 20%” value (patients with meningioma; [10]) was “hypertension, decreased platelet count, increased blood lactate dehydrogenase, sinus bradycardia, proteinuria, increased aspartate aminotransferase, increased alanine aminotransferase, hypokalemia, hyperlipidemia, decreased neutrophil count, decreased leukocyte count, diarrhea, and anemia” and the disease control rate (patients with meningioma; [11]) was 82.4%. The objective remission rate (patients with meningioma; [11]) was 29.41%, the “C2 target lesion shrinkage” value (patients with meningioma; Typical case 1: anaplastic meningioma WHO grade III, oral solution 15 mg once daily, two cycles) was 56% and the “adverse events during the treatment” value (patients with meningioma; Typical case 1: oral solution 15 mg once daily) was “No adverse events”. For the same molecule, the “clinical symptoms reported by subject” value (patients with meningioma; Typical case 1: oral solution 15 mg once daily, two cycles) was “significantly mitigated head-distending pain”, the “clinical symptoms of subject” value (patients with meningioma; Typical case 2: baseline blindness in both eyes, oral solution 15 mg once daily, after two cycles) was “vision recovery and self-care recovery” and the “C2 target lesion shrinkage” value (patients with meningioma; Typical case 2: meningioma (fibrous) WHO grade I, oral solution 15 mg once daily, two cycles) was 36%. For the same molecule, the “main adverse event during the treatment” value (patients with meningioma; Typical case 2: oral solution 15 mg once daily, recovered after administration was suspended) was “mild or moderate hypertension”, the “C2 target lesion shrinkage” value (patients with meningioma; Typical case 3: malignant meningioma, oral solution 15 mg once daily) was 56% and the “main adverse event during the treatment” value (patients with meningioma; Typical case 3: oral solution 15 mg once daily, recovered after taking a hypotensor) was “mild or moderate hypertension”. For the same molecule, the target lesion shrinkage (patients with meningioma; Typical case 4: atypical meningioma WHO grade II, oral solution 20 mg once daily) was 61.47%, the “main adverse events during the treatment” value (patients with meningioma; Typical case 4: oral solution 20 mg once daily, recovered after symptomatic treatment) was “mild proteinuria, decreased platelet count, decreased neutrophil count, decreased leucocyte count, and increased alanine aminotransferase” and the “main adverse events during the treatment” value (patients with meningioma; Typical case 5: oral solution 25 mg once daily, mitigated/recovered after symptomatic treatment) was “mild hypertension, decreased platelet count, decreased neutrophil count, and increased alanine aminotransferase”. The target lesion shrinkage (patients with meningioma; Typical case 5: papillary meningioma WHO grade III, oral solution 25 mg once daily) was 36.73%, the MR cases (patients with meningioma; [12]) was 6 and the PR cases (patients with meningioma; [12]) was 4. For the same molecule, the MR case (patients with meningioma; [13]) was 1, the PR cases (patients with meningioma; [13]) was 2 and the “patients exhibited tumor shrinkage after administration” value (patients with meningioma; [14]) was 26 patients. For the same molecule, the “patients exhibiting tumor shrinkage after administration, share of all patients” value (patients with meningioma; [14]) was 76.5% and the “maximum tolerated dose for the human body” value [9] was 200 mg.
